Source: patent publication US20240409536A1, “COMPOUNDS AND METHODS FOR MODULATING SPLICING” (REMIX THERAPEUTICS INC., priority 2021, published 2024)
pIC50: −log10 of the molar value. Where a name gives a salt, the structure may show the parent alone.

What was measured:
[1] = test system: MYB mRNA; experiment: Splicing RT-qPCR assay, MYB canonical (CJ) and alternative (AJ) junction mRNA; format: cell-based; settings: Homo sapiens, A673 or K562 cells, 24 hours; for pIC50: decrease in canonical junction mRNA; for AC50: increase in alternative junction mRNA
Procedure, shortened: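 RT-qPCR read-out: CJ and AJ junction isoforms quantified from cell lysates, normalized to housekeeping GAPDH/GUSB (K562) or PPIA (A673). Cells had 24 h compound exposure, 11-point 3-fold series from 10 uM final, ≤0.25% DMSO.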

[2] = test system: Target C; experiment: HiBiT protein abundance assay, Target C (K562 HiBiT knock-in cells); format: cell-based, human; settings: 24 hours
Procedure, shortened: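 Protein abundance read by HiBiT lytic luminescence after 24 h compound exposure (37 °C) of knock-in K562 cells, 10000 cells/well in IMDM+1% FBS. Dosing: 10 points, 3-fold, top 10 μM final, ≤0.25% DMSO. Four-parameter logistic fit gave concentration reducing abundance to 50% of untreated control.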

| pIC50 [1] | pIC50 [2] | SMILES | AC50 [1] |
| --- | --- | --- | --- |
| 6.00 to 7.00 | 5.00 to 6.00 | Cc1cn2cc(NC(=O)c3ccc(N4CCNC5(CCOC5)C4)c4nccnc34)cc(F)c2n1 (centres unmarked) [Compound 373] | 1000 to 10000 nM |
| > 7.00 | 5.00 to 6.00 | COc1cc2c(N3CCNCC3)ccc(C(=O)Nc3cc(F)c4nc(C)cn4c3)c2nn1 [Compound 183, N-{8-fluoro-2-methylimidazo[1,2-a]pyridin-6-yl}-3-methoxy-5-(piperazin-1-yl)cinnoline-8-carboxamide] | < 100 nM |
| 6.00 to 7.00 | 5.00 to 6.00 | Cc1cn2cc(NC(=O)c3ccc(N4CCN(C)[C@@H](C)C4)c4ccnnc34)cc(F)c2n1 [Compound 150] | 100 to 1000 nM |
| 6.00 to 7.00 | 5.00 to 6.00 | Cc1cn2cc(NC(=O)c3ccc(N4CCNCC4)c4ccnnc34)cc(C)c2n1 [Compound 125] | 100 to 1000 nM |
| > 7.00 | 5.00 to 6.00 | COc1cnc2c(N3CCNCC3)ccc(C(=O)Nc3cc(F)c4nc(C)cn4c3)c2n1 [Compound 207, N-{8-fluoro-2-methylimidazo[1,2-a]pyridin-6-yl}-3-methoxy-8-(piperazin-1-yl)quinoxaline-5-carboxamide; bis(trifluoroacetic acid)] | < 100 nM |
| 5.00 to 6.00 | < 5.00 | Cc1cn2cc(NC(=O)c3ccc(N4C[C@H]5C[C@@H]4C5N(C)C)c4ccnnc34)cc(F)c2n1 (some centres unmarked) [Compound 155] | 1000 to 10000 nM |
| > 7.00 | < 5.00 | COc1nc(NC(=O)c2ccc(N3CCNCC3)c3ccnnc23)cn2cc(C)nc12 [Compound 179, N-{8-methoxy-2-methylimidazo[1,2-a]pyrazin-6-yl}-5-(piperazin-1-yl)cinnoline-8-carboxamide] | < 100 nM |
| 6.00 to 7.00 | < 5.00 | Cc1cn2cc(NC(=O)c3ccc(N4CCNCC4)c4ccnnc34)nc(C)c2n1 [Compound 164, N-{2,8-dimethylimidazo[1,2-a]pyrazin-6-yl}-5-(piperazin-1-yl)cinnoline-8-carboxamide 2,2,2-trifluoroacetate] | 100 to 1000 nM |
| > 7.00 | < 5.00 | COCCOc1ccc2c(N3CCNCC3)ccc(C(=O)Nc3cc(F)c4nc(C)cn4c3)c2n1 [Compound 173, N-{8-fluoro-2-methylimidazo[1,2-a]pyridin-6-yl}-2-(2-methoxyethoxy)-5-(piperazin-1-yl)quinoline-8-carboxamide] | < 100 nM |
| > 7.00 | 5.00 to 6.00 | Cc1cn2cc(NC(=O)c3ccc(N4C[C@@H](C)N[C@@H](C)C4)c4ccnnc34)cc(F)c2n1 [Compound 161, 5-(3,5-dimethylpiperazin-1-yl)-N-{8-fluoro-2-methylimidazo[1,2-a]pyridin-6-yl}cinnoline-8-carboxamide 2,2,2-trifluoroacetate] | < 100 nM |
| > 7.00 | 6.00 to 7.00 | Cc1cn2cc(NC(=O)c3ccc(N4CCNC(C)C4)c4ccnnc34)cc(F)c2n1 (centres unmarked) [Compound 128] | < 100 nM |
| > 7.00 | 5.00 to 6.00 | Cc1cn2cc(NC(=O)c3ccc(N4CCNCC4)c4cccnc34)cc(F)c2n1 [Compound 165, N-{8-fluoro-2-methylimidazo[1,2-a]pyridin-6-yl}-5-(piperazin-1-yl)quinoline-8-carboxamide] | < 100 nM |
| > 7.00 | < 5.00 | COc1cnc2c(C(=O)Nc3cc(F)c4nc(C)cn4c3)ccc(N3CCNCC3)c2n1 [Compound 225, N-{8-fluoro-2-methylimidazo[1,2-a]pyridin-6-yl}-2-methoxy-8-(piperazin-1-yl)quinoxaline-5-carboxamide] | 100 to 1000 nM |
| 6.00 to 7.00 | < 5.00 | Cc1nc(NC(=O)c2ccc(N3CCNCC3)c3ccnnc23)cc2cn(C)nc12 [Compound 178, N-{2,7-dimethylpyrazolo[3,4-c]pyridin-5-yl}-5-(piperazin-1-yl)cinnoline-8-carboxamide] | 100 to 1000 nM |
| 6.00 to 7.00 | 6.00 to 7.00 | Cc1cn2cc(NC(=O)c3ccc(N4CCNCC4)c4ccnnc34)[nH]c(=O)c2n1 [Compound 177, N-{2-methyl-8-oxo-7H-imidazo[1,2-a]pyrazin-6-yl}-5-(piperazin-1-yl)cinnoline-8-carboxamide trifluoroacetic acid salt] | 100 to 1000 nM |
| 6.00 to 7.00 | 5.00 to 6.00 | Cc1cn2cc(NC(=O)c3ccc(N4CCNC5(CC5)C4)c4ccnnc34)cc(F)c2n1 [Compound 105] | 100 to 1000 nM |

| pIC50 [1] | pIC50 [2] | SMILES | AC50 [1] |
| --- | --- | --- | --- |
| > 7.00 | 5.00 to 6.00 | Cc1cn2cc(NC(=O)c3ccc(N4C[C@H](C)NC5(CC5)C4)c4nccnc34)cc(F)c2n1 [Compound 377] | < 100 nM |
| > 7.00 | 5.00 to 6.00 | CCNC1CCN(c2ccc(C(=O)Nc3cc(F)c4nc(C)cn4c3)c3nccnc23)CC1 [Compound 191, 8-[4-(ethylamino)piperidin-1-yl]-N-{8-fluoro-2-methylimidazo[1,2-a]pyridin-6-yl}quinoxaline-5-carboxamide] | 100 to 1000 nM |
| 6.00 to 7.00 | 5.00 to 6.00 | Cc1cn2cc(NC(=O)c3ccc(N4CC5(CNC5)C4)c4ccnnc34)cc(F)c2n1 [Compound 131] | 100 to 1000 nM |
| 6.00 to 7.00 | 5.00 to 6.00 | Cc1cn2cc(NC(=O)c3ccc(C4CCNC5(CC5)C4)c4nccnc34)cc(F)c2n1 (centres unmarked) [Compound 375] | 100 to 1000 nM |
| > 7.00 | 6.00 to 7.00 | Cc1cn2cc(NC(=O)c3ccc(N4CCC(N(C)C)CC4)c4ccnnc34)cc(F)c2n1 [Compound 137] | < 100 nM |
| > 7.00 | 6.00 to 7.00 | Cc1cnc2c(N3CCC(N(C)C)CC3)ccc(C(=O)Nc3cc(F)c4nc(C)cn4c3)c2n1 [Compound 200, 8-[4-(dimethylamino)piperidin-1-yl]-N-{8-fluoro-2-methylimidazo[1,2-a]pyridin-6-yl}-3-methylquinoxaline-5-carboxamide] | < 100 nM |
| 6.00 to 7.00 | 5.00 to 6.00 | Cc1cnc2c(N3CCNCC3)ccc(C(=O)Nc3cc(F)c4nc(C)cn4c3)c2n1 [Compound 197, N-{8-fluoro-2-methylimidazo[1,2-a]pyridin-6-yl}-3-methyl-8-(piperazin-1-yl)quinoxaline-5-carboxamide; trifluoroacetic acid] | 100 to 1000 nM |
| > 7.00 | 5.00 to 6.00 | Cc1cn2cc(NC(=O)c3ccc(N4CCN[C@H](C)C4)c4ccnnc34)cc(F)c2n1 [Compound 146] | < 100 nM |
| 6.00 to 7.00 | 5.00 to 6.00 | Cc1cn2cc(NC(=O)c3ccc(N4CCC(N(C)C)C4)c4ccnnc34)cc(F)c2n1 (centres unmarked) [Compound 134] | 100 to 1000 nM |
| 6.00 to 7.00 | 5.00 to 6.00 | CNC1CCN(c2ccc(C(=O)Nc3cc(F)c4nc(C)cn4c3)c3nccnc23)C1 (centres unmarked) [Compound 190, N-{8-fluoro-2-methylimidazo[1,2-a]pyridin-6-yl}-8-[3-(methylamino)pyrrolidin-1-yl]quinoxaline-5-carboxamide] | < 100 nM |
| > 7.00 | 5.00 to 6.00 | Cc1ccc2c(N3CCNCC3)ccc(C(=O)Nc3cc(F)c4nc(C)cn4c3)c2n1 [Compound 162, N-{8-fluoro-2-methylimidazo[1,2-a]pyridin-6-yl}-2-methyl-5-(piperazin-1-yl)quinoline-8-carboxam-ide, trifluoroacetic acid] | < 100 nM |
| < 5.00 | < 5.00 | Cc1cn2cc(NC(=O)c3ccc(N4CCNCC4)c4ccnnc34)cc(C(C)O)c2n1 (centres unmarked) [Compound 182, N-[8-(1-hydroxyethyl)-2-methylimidazo[1,2-a]pyridin-6-yl]-5-(piperazin-1-yl)cinnoline-8-carboxamide trifluoroacetate] | > 10000 nM |
| 6.00 to 7.00 | 6.00 to 7.00 | Cc1cn2cc(NC(=O)c3ccc(C4CCNCC4)c4nccnc34)cc(F)c2n1 [Compound 371] | < 100 nM |
| > 7.00 | 5.00 to 6.00 | Cc1cn2cc(NC(=O)c3ccc(N4C[C@@H](C)N[C@@H](C)C4)c4nccnc34)cc(F)c2n1 [Compound 186, 8-(3,5-dimethylpiperazin-1-yl)-N-{8-fluoro-2-methylimidazo[1,2-a]pyridin-6-yl}quinoxaline-5-carboxamide] | < 100 nM |
| 6.00 to 7.00 | 5.00 to 6.00 | COc1cc(NC(=O)c2ccc(N3CCNCC3)c3ccnnc23)cn2cc(C)nc12 [Compound 176, N-{8-methoxy-2-methylimidazo[1,2-a]pyridin-6-yl}-5-(piperazin-1-yl)cinnoline-8-carboxamide trifluoroacetate] | 100 to 1000 nM |
| – | 5.00 to 6.00 | CNC1CCN(c2ccc(C(=O)Nc3cc(F)c4nc(C)cn4c3)c3nc(OC)cnc23)C1 (centres unmarked) [Compound 202, N-{8-fluoro-2-methylimidazo[1,2-a]pyridin-6-yl}-3-methoxy-8-[3-(methylamino)pyrrolidin-1-yl]quinoxaline-5-carboxamide; bis(trifluoroacetic acid)] | 100 to 1000 nM |

| SMILES | pIC50 [1] | pIC50 [2] | AC50 [1] |
| --- | --- | --- | --- |
| O=C(Nc1cn[nH]c1)c1ccc(N2CCNCC2)c2ccnnc12 [Compound 126] | < 5.00 | < 5.00 | > 10000 nM |
| Cc1cn2cc(NC(=O)c3ccc(N4C[C@H]5CC[C@@H](C4)N5)c4ccnnc34)cc(F)c2n1 [Compound 108] | 6.00 to 7.00 | < 5.00 | 100 to 1000 nM |
| Cc1cn2cc(NC(=O)c3ccc(N(C)[C@@H]4C[C@H]5CC[C@@H](C4)N5)c4ccnnc34)cc(F)c2n1 [Compound 156] | 5.00 to 6.00 | < 5.00 | 1000 to 10000 nM |
